Target: T1, Rac1/Trio (Homo sapiens, UniProt O75962)
T1 construct: human TRIO^DH1PH1 (1232-1550); made in house
Assay: Nucleotide exchange kinetics on liposomes, Rac1 tethered by hexahistidine tag
Assay type: biochemical
Settings: 50 μM; Rac1 tethered to liposomes
Procedure: FIG. 2. Bragsin is a specific inhibitor of the ArfGEF BRAG2 • a. Bragsin1 has no effect on the Sec7 domain of human ArfGEFs in solution. Nucleotide exchange kinetics were measured by fluorescence kinetics in the presence of Bragsin1 (50 μM) or DMSO using purified Sec7 domains and a truncated version of Arf1 (D17Arf1), which can be activated in solution. […] Nucleotide exchange kinetics were determined in the presence of Bragsin1 (50 μM) or DMSO with ArfGEF constructs carrying membrane-binding domains and myristoylated Arf1. […] was artificially tethered to liposomes by a C-terminal hexahistidine tag as described in (Peurois, F. et al. Biochem J 474, 1259-1272 (2017). Representative kinetic profiles are given in FIG. 15. • c. Bragsin1 inhibits the activation of myristoylated Arf6 by BRAG2 on liposomes. Experiments were carried out as in FIG. 2b. Representative kinetic profiles are given in FIG. 16. • d. Dose-response of Bragsin1 and Bragsin2 towards myristoylated Arf1 and BRAG2 on liposomes. Experiments were carried out as in FIG. 2b. • e. Silencing of BRAG2 phenocopies the effect of Bragsin2 on the TGN46 compartment. […]
The effect of Bragsin1 on the GEF efficiency of representative human ArfGEFs was evaluated by fluorescence kinetics using highly purified recombinant Arf GTPases and ArfGEFs. […]

Effect on Rac1/Trio exchange activity on liposomes: no effect
Compound: Cc1ccc2oc(C(F)(F)F)cc(=O)c2c1[N+](=O)[O-] [Bragsin1, 6-methyl-5-nitro-2-(trifluoromethyl)-4H-chromen-4-one]

From patent US12152012B2, “BRAG2 inhibitors and applications thereof” (CENTRE NATIONAL DE LA RECHERCHE SCIENTIFIQUE, priority 2018, dated 2024)
